Data reported in US20120100073A1, “PET RADIOTRACERS FOR IMAGING FATTY ACID METABOLISM AND STORAGE” (WASHINGTON UNIVERSITY, priority 2009, published 2012).

Tests used:
[1] = test system: β-oxidation; settings: literature ref. 17, cited from earlier work
[2] = previous studies; rapid phase = oxidation, slow phase = storage; cited from earlier work
[3] = microPET imaging and myocardial time-activity curves (tracer kinetics) in a fed rat; assay type: in vivo
Experimental: Animal Preparation. All animal procedures are conducted in compliance with the guidelines for the care and use of research animals established by the Animal Studies Committee of Washington University. Animal preparation is performed as described previously.^24-26 Rats are housed in metabolism cages and anesthetized by inhalation of […] isoflurane administered via an induction chamber. Anesthesia can be maintained throughout the imaging session by delivering 1%-1.5% isoflurane via a custom-designed nose cone. Venous access is via the right jugular vein. Body temperature can be maintained using a circulating water blanket and a heat lamp. Heart and respiration rates can be monitored throughout the process.
PET Acquisition. The animals can be secured in a custom-designed acrylic restraining device and placed inside the field of view of the small-animal imaging PET scanner. Imaging acquisition starts Ss after a bolus injection of tracer via the right jugular catheter. The imaging protocol consists of dynamic acquisition of microPET images of ^11C-palmitate (5-7mCI) followed by ^18F-FAA or by ^18F-VLDL (5-7mCi) alone. Dynamic mage acquisition during ^11C-palmitate and either ^18F-FAA or ^18F-FAA-VLDL can be 30 and 60 min, respectively. The total time of the imaging session can be ˜3 hrs. Three whole-blood arterial samples are collected throughout the study to measure whole blood glucose (5 μL), free fatty acid (20 μL), and insulin (5 μL) levels to confirm the metabolic state of the animals,
Image Processing/Analysis. Dynamic images can be reconstructed using filtered backprojection with a 2.5 zoom on the heart and 40 frames per imaging session. The input function is reconstructed by applying the hybrid image-blood-sampling algorithm as described previously.^25 A myocardial region of interest is placed to generate a myocardial time-activity curve (TAC). The ^18F-FAA and ^18F-FAA-VLDL blood and myocardial TACs can be compared with the ^11C-palmitate TACs for both defiing characteristics (e.g., height and shape) as well as similar kinetics based exponential curve-fitting algorithms. […]

## CCCC([18F])CCCCCCCSCCCCC(=O)O (racemic) [FTHA, 14-(R,S)-^18F-fluoro-6-thiaheptadecanoic acid]
[1]
  uptake and retention versus inhibition of β-oxidation by hypoxia: insensitive to the inhibition of β-oxidation by hypoxia

## O=C(O)CCSCCCCCCCCCCCC[18F] [FTP, ^18F-fluoro-thia-palmitate]
[1]; normal oxygenation and hypoxic conditions
  deposition versus β-oxidation: proportional to β-oxidation under normal oxygenation and hypoxic conditions

## CCCCCCCCCCCCCCC[11C](=O)O [^11C-palmitate]
[2]
  washout kinetics from heart: biphasic washout kinetics from heart
[3]; blood and myocardial TACs, fed rat
  myocardial tracer uptake and washout pattern: significant tracer uptake with rapid bi-phasic washout
[3]; blood and myocardium, up to 60 mins post-tracer injection
  tracer clearance late after injection: tracer increased in both, blood and myocardium, 25 mins post tracer injection

## O=C(O)CCCCCCCCCCCCCCc1ccc(OCC[18F])cc1 [^18F-FAA]
[3]; rat, in vivo
  tracer clearance late after injection: still prevalent at 60 mins post-tracer injection

## O=C(O)CCCCCCCCCCCCCCc1ccc(I)cc1 [^123I-lPPA, 15-(p-iodophenyl)-pentadecanoic acid]
[2]
  washout kinetics from heart: biphasic washout kinetics from heart
